The record followed here is ChEMBL document CHEMBL1130916, “Design and synthesis of conformationally-constrained MMP inhibitors” (Bioorg Med Chem Lett, 1998).

The structures appear in SMILES notation.

For one assay, the target named is Stromelysin-1 (Homo sapiens, UniProt P08254). The assay can be described thus: Inhibition of matrix metalloprotease-3 (MMP-3).
The next assay has as its target T1, Interstitial collagenase (Homo sapiens, UniProt P03956).
T1 sequence (P03956 whole entry): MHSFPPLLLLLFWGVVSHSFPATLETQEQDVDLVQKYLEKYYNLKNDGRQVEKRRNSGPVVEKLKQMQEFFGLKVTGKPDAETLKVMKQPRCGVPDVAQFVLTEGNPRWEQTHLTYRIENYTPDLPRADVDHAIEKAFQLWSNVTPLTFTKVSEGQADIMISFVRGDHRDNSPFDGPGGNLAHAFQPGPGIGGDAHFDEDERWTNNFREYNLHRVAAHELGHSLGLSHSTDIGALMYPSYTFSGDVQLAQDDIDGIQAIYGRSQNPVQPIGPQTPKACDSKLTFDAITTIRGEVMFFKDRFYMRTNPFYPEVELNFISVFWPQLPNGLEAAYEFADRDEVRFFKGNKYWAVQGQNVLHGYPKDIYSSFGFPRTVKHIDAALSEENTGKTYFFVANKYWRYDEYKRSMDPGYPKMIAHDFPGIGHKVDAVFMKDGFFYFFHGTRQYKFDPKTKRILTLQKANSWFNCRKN
The assay can be described thus: Inhibition of matrix metalloprotease-1 (MMP-1).

Sequence of Stromelysin-1 (P08254 whole entry): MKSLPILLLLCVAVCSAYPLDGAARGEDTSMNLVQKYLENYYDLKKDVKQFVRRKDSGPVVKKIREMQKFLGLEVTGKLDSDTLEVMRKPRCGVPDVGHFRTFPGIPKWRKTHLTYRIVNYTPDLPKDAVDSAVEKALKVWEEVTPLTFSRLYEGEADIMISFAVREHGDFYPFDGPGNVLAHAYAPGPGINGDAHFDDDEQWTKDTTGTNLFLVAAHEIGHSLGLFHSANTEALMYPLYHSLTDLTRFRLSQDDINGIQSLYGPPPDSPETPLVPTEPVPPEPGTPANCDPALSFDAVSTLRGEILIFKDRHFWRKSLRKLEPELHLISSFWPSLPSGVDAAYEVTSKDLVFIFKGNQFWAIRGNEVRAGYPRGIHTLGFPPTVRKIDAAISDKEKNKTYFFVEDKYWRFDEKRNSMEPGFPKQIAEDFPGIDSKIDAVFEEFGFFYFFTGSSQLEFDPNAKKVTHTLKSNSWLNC

With `CCCCCCCC[C@H](CC(=O)NO)C(=O)N[C@H]1CCCCN(CC(=O)OC)C1=O`, the IC50 was found to be 1040 nM against Stromelysin-1 and 11 nM on Interstitial collagenase.
The matching figures for `CCC[C@@H](C(=O)NO)[C@@H](CC(C)C)C(=O)N[C@H]1CCCCN(CCOC)C1=O`: 94 nM and 83 nM.
For `CCCCCCCC[C@@H](C(=O)N[C@H]1CCCCN(CC(=O)OC)C1=O)[C@@H](C)C(=O)NO` the same measures were 21 nM and 57 nM.
For `COC(=O)CN1CCCC[C@H](NC(=O)[C@H](CC(C)C)[C@@H](C)C(=O)NO)C1=O` the same measures were 215 nM and 49 nM.
Regarding `CCCCC[C@H](CC(=O)NO)C(=O)N[C@H]1CCCCN(CC(=O)OC)C1=O`, the figures for the IC50 against Stromelysin-1 and on Interstitial collagenase were 824 nM and 129 nM, respectively.
The matching figures for `CCC[C@@H](C(=O)NO)[C@@H](CC(C)C)C(=O)N[C@H]1CCCCN(CC(=O)OC)C1=O`: 58 nM and 96 nM.
The matching figures for `COC(=O)CN1CCCC[C@H](NC(=O)[C@@H](CC(=O)NO)CC(C)C)C1=O`: 2900 nM and 225 nM.
The matching figures for `CC(C)C[C@H](CC(=O)NO)C(=O)N[C@H]1CCCCN(CCOc2ccccc2)C1=O`: 518 nM and 117 nM.
With `CC(C)C[C@H](CC(=O)NO)C(=O)N[C@H]1CCCCNC1=O`, the results for the IC50 against Stromelysin-1 and against Interstitial collagenase were 11700 nM and 3900 nM, respectively.
For `CCCCCCCC[C@H](CC(=O)NO)C(=O)N[C@H]1CCCCN(CCOC)C1=O` the same measures were 250 nM and 1890 nM.
`CC(C)C[C@H](CC(=O)NO)C(=O)N[C@H]1CCCCN(CCCOc2ccccc2)C1=O`: the IC50 stood at 1420 nM on Stromelysin-1 and 140 nM on Interstitial collagenase.
Turning to `CCCCCCCC[C@@H](C(=O)N[C@H]1CCCCN(CCOC)C1=O)[C@@H](C)C(=O)NO`, the results for the IC50 against Stromelysin-1 and at Interstitial collagenase were 30 nM and 112 nM, respectively.
`COCCN1CCCC[C@H](NC(=O)[C@H](CC(C)C)[C@@H](CCCO)C(=O)NO)C1=O` registered an IC50 against Interstitial collagenase of 51 nM.
`CCCCCCCCC(C(=O)N[C@H]1CCCCN(CCOC)C1=O)C(C)C(=O)NO` (single isomer, unassigned): the IC50 worked out at 108 nM at Stromelysin-1 and 4360 nM against Interstitial collagenase.

What is called IC50 is the concentration that inhibits the measured activity by half. A higher IC50 goes with lower potency.
